According to patent US20240115550A1, “TREATMENT OF MENTAL DISORDERS” (GH Research Ireland Limited, priority 2022, published 2024):
“And” between values parts separate entries of the source, which are not always exact repeats. Equal values may be shown once.

Tests used:
[1] = LC-MS/MS of 5-MeO-DMT and metabolites in breastmilk, serum and urine of a lactating PPD patient
human plasma protein = assay: Plasma binding of 5-MIAA; format: in vitro ADME
Experimental: Binding to human plasma protein was determined. Reported are the unbound fraction (fu) for three replicates as well as the mean unbound fraction, the standard deviation and the mean % recovery (Table 8).

[2] = tested on: human hepatocytes (Hμrel HumanPool co-culture); assay: Metabolic stability in Hμrel human hepatocyte co-culture; format: in vitro ADME
Experimental: The incubations were performed using 1 and 10 μM initial concentrations and sampling at 0, 1, 2, 4, 8, 24, 48, and 72 hours (h) time points. The samples were analysed using UPLC/QE-orbitrap-MS.

[3] = Infant exposure estimate (DID, RID) from breast milk concentrations
[4] = Pharmacokinetics after single inhaled dose; format: in vivo, human
[5] = tested on: Salmonella typhimurium (TA98, TA100, TA1535 and TA1537); assay: Bacterial mutation test, Salmonella typhimurium; format: cell-based; conditions: up to 5000 μg/plate, absence and presence of S-9
Experimental: (§1) These conditions included treatments at concentrations up to 5000 μg/plate (the maximum recommended concentration according to current regulatory guidelines), in the absence and in the presence of a rat liver metabolic activation system (S-9).

[6] = tested on: patients with postpartum depression (PPD); assay: Clinical trial of inhaled 5-MeO-DMT in postpartum depression; format: in vivo, human; conditions: for MADRS response (>=50% improvement) and remission (total <=10): 6 mg then 12 mg
Experimental: The single-arm, open-label clinical trial will involve 15 adult female patients with clinically diagnosed postpartum depression (PPD).
The second dose (12 mg) will only be administered if: • a. A peak experience (total score of ≥75) has not been achieved following the 6 mg dose, and • b. The 6 mg dose was safe and well-tolerated according to the investigator, • c. Any psychoactive effects (PsE) of the prior dose have subsided, and • d. Pre-dose vital parameters and forced expiratory volume in one second (FEV1) are in normal range, or if outside of the normal range, are not clinically significant according to the investigator. • 3. Similarly, a third dose (18 mg) will only be administered if: • a. A peak experience (total score of ≥75) has not been achieved following the 12 mg dose, and • b. The 12 mg dose was safe and well-tolerated according to the investigator, and • c. Any PsE of the prior dose have subsided, and • d. Pre-dose vital parameters and forced expiratory volume in one second (FEV1) are in normal range, or if outside of the normal range, are not clinically significant according to the investigator.
The patients will be assessed for a peak psychedelic experience (based on a patient-scored visual analogue scale, the PE scale), sedation, and other endpoints after dosing. Follow-up visits are planned for Day 1, and Day 7 after the dosing day.
The following criteria must be met by all patients considered for clinical trial participation: • 1. Is female and in the age range between 18 and 45 years (inclusive) at screening. • 2. Has a body mass index (BMI) in the range of 18.5 and 35 kg/m^2 (inclusive) at screening. • 3. Meets the trial criteria for PPD as assessed by a trial psychiatrist or registered psychologist: • a. Diagnosis of Major Depressive Disorder without psychotic features, confirmed by the Mini-International Neuropsychiatric Interview (MINI), with peri-partum onset that began no earlier than gestation and no later than the first 4 weeks postpartum. • b. Has a Montgomery-Åsberg Depression Rating Scale (MADRS) total score of equal to or greater than 28 at screening and pre-dose on Day 0. • 6. […] Patients must have a negative pregnancy test at screening and on the pre-test day (Day −1). • 5. Is willing to delay start of other antidepressant or anxiety medication until after the end of the trial at Day 7 and agrees to keep any psychotherapy unchanged during the trial.
A potential patient who meets any of the following key exclusion criteria will be excluded from participation in this trial: • 1. Has, based on history, psychiatric assessment, and evaluation of the MINI, a current or prior diagnosis of bipolar disorder, a manic or hypomanic episode, a psychotic disorder, Major Depressive Disorder (MDD) or other mood disorder with psychotic features, obsessive compulsive disorder, post-traumatic stress disorder (PTSD), autism spectrum disorder, borderline personality disorder, schizophrenia, delusional disorder, paranoid personality disorder, schizoaffective disorder, clinically significant intellectual disability, or any other psychiatric comorbidity that renders the patient unsuitable for the trial according to the investigator's judgment. • 2. Has one or more first or second degree relatives with a current or previously diagnosed bipolar disorder, psychotic disorder or other mood disorder (including MDD) with psychotic features. • 3. Is in the judgement of a trial psychiatrist or registered psychologist, at significant risk for suicide based on history, psychiatric assessment, and evaluation of suicidal ideation and suicidal behaviour based on the Columbia-Suicide Severity Rating Scale (C-SSRS). • 4. Has taken anti-depressive medication within 14 days or 5 half-lives (whichever is longer) prior to dosing (exception: within the last 5 weeks in the case of fluoxetine). • 5.

[7] = tested on: Escherichia coli (WP2 uvrA pKM101); assay: Bacterial mutation test, Escherichia coli; format: cell-based; conditions: up to 5000 μg/plate, absence and presence of S-9
Experimental: as §1

[8] = 2.5 hours after last 5-MeO-DMT dose
[9] = female, human, breast milk, inhaled

5-methoxyindole acetic acid [5-MIAA]
urine concentration, times higher than in serum ([1]; 5-MIAA at 2.5 hours): approx. 127 times | 5-MIAA concentration in breast milk ([1]; 1 hour after last 5-MeO-DMT dose): 13945.2 | 5-MIAA concentration in breast milk [1, 8]: 13240.9 | 5-MIAA urine concentration [1, 8]: 12 | 5-MIAA concentration in breast milk ([1]; 8.5 hours after last 5-MeO-DMT dose): 359.4 | plasma binding (human plasma protein; from mean fraction unbound): ~50% | Mean % Recovery (human plasma protein; human plasma): 81.4% | unbound fraction (fu), Replicate 1 (human plasma protein; human plasma): 0.499 | unbound fraction (fu), Replicate 2 (human plasma protein; human plasma): 0.462 | unbound fraction (fu), Replicate 3 (human plasma protein; human plasma): 0.544 | Mean fu (human plasma protein; human plasma, three replicates): 0.502 | remaining abundance ([2]; after 72h with hepatocytes, 1 and 10 μM): 75-82% | in vitro intrinsic clearance ([2]; human hepatocytes, 1 μM): 0.15 μl/min/million cells | DID per kg ([3]; 5 kg infant): 0.001377 mg/kg/day | total exposure of the infant (DID) ([3]; three feeds of 250 ml): 0.006886 mg 5-MIAA/day

COc1ccc2[nH]cc(CCN(C)C)c2c1 [5-MeO-DMT]
detection in breast milk ([1]; after 24 hours): did not detect | concentration at 2.5 h [1, 9]: 561 µg/mL | concentration at 8.5 h [1, 9]: 42.1 µg/mL | Daily Infant Dosage (DID) per kg ([3]; 5 kg infant): 0.0001385 mg/kg/day | detectability in plasma ([4]; 3 hours after inhalation): no longer detectable | accumulation upon repeated administration ([4]; repeated within 1 to 4 hours): No accumulation | mutation induction [5]: did not induce mutation | MADRS response (>=50% improvement) and remission (total <=10) ([6]; first PPD patient): fulfilled standard criteria | BIMF management domain, percentage improvement ([6]; first PPD patient, Day 7): 18% | BIMF self-care domain, percentage improvement ([6]; first PPD patient, Day 7): 44% | adverse events ([6]; first PPD patient: cramping left abdominal pain and headache, Day 0): mild, short-lasting and resolved spontaneously | MADRS item score ([6]; first PPD patient, Day 1, as E149): 0 | BPRS item score ([6]; first PPD patient, Day 1, rows as E155): 1 | BPRS item score ([6]; first PPD patient, Day 7, rows as E155): 1 | BPRS item score ([6]; first PPD patient, Discharge, item by row: r24 Somatic Concern, r25 Anxiety, r26 Emotional withdrawal, r28 Conceptual disorganization, r30 Guilt feelings, r31 Tension, r32 Mannerisms and Posturing, r34 Grandiosity, r35 Depressive Mood, r36 Hostility, r37 Suspiciousness, r38 Hallucinatory behaviour, r40 Motor retardation, r41 Uncooperativeness, r42 Unusual Thought Content, r44 Blunted affect, r45 E): 1 | MADRS response (>=50% improvement) and remission (total <=10) ([6]; second PPD patient): fulfilled standard criteria | adverse events ([6]; second PPD patient: vomiting Day 0, headache Day 5): mild, short-lasting and resolved spontaneously | mutation induction [7]: did not induce mutation

COc1ccc2[nH]cc(CCO)c2c1 [5-methoxytryptophol, 5-methoxyindole-3-ethanol]
relative LC/MS peak area for 5-methoxytryptophol ([2]; 0 h, incubation by row: r7 1 μM Hepatocytes, r8 1 μM Stromal cells, r9 10 μM Hepatocytes, r10 10 μM Stromal cells): 100% | relative LC/MS peak area for 5-methoxytryptophol ([2]; 1 h, as E141): 79% and 87% | relative LC/MS peak area for 5-methoxytryptophol ([2]; 2 h, as E141): 57% and 81% | metabolic turnover ([2]; in 24 h with hepatocytes): complete disappearance

CN(C)CCc1c[nH]c2ccc(O)cc12 [bufotenine]
detection in serum and breastmilk ([1]; any time point after 5-MeO-DMT): not detected | Bufotenine in Breastmilk ([1]; times by row as E172): BLQ (Below limit of quantification. The lower limit of quantification is 25 pg/ml for both 5-MeO-DMT and 5-MIAA in both serum and breastmilk; it is 25 pg/ml in urine for 5-MeO-DMT and 250 pg/ml for 5-MIAA in urine.) | Bufotenine in Serum ([1]; times by row as E172): BLQ (Below limit of quantification. The lower limit of quantification is 25 pg/ml for both 5-MeO-DMT and 5-MIAA in both serum and breastmilk; it is 25 pg/ml in urine for 5-MeO-DMT and 250 pg/ml for 5-MIAA in urine.) | detection in human serum ([4]; after 5-MeO-DMT, in no case detected 15 minutes after administration): barely detected
